From patent US20140309295A1, “ANTIEPILEPTIC, HYPOCHOLESTEROLEMIC AND NEUROPROTECTIVE COMPOUND” (NEURON BIOPHARMA, S.A., priority 2009, published 2014)

Columns and labels:
[1] = system: human neuroblastoma SK-N-MC cells; test: Protection against neuronal death induced by endoplasmic reticulum stress (tunicamycin), WST-1; format: cell-based; settings: 40 μM NST0037; 24 μM tunicamycin
Method: The assay was performed on human neuroblastoma SK-N-MC cells in culture from the American Type Culture Collection (ATCC), in all cases strict rules of sterility were followed and the manipulation was performed in class II biological safety cabinets following European standard EN 12469. The cells were maintained in the following culture medium: Minimum Essential Medium Eagle (MEM) supplemented with 1 mM sodium pyruvate, 2 mM L-glutamine, 0.1 mM non-essential amino acids, 0.05 mg/ml gentamicin and 10% fetal bovine serum.
The inhibition caused by compound NST0037 of cell death caused by treatment with tunicamycin generating reticular stress was analyzed. Tunicamycin is an inhibitor of protein N-glycosylation, causing abnormal protein folding in the endoplasmic reticulum, therefore said proteins are accumulated and cause stress, resulting in cell death. These cells, not exceeding 15 passages, were seeded on 96-well plates treated for adherent cells with a cell concentration of 5×10^4 cells/well; 3 wells of the plate were seeded for each condition of the assay. […]
The cells were incubated (at 37° C. and 5% CO2) with these treatments for 22 hours, after which time WST-1 reagent (Roche) was added. […] The formazan that is formed can be detected colorimetrically since it has an absorbance of 440 nm. The reading was taken in a plate reader at 440 nm 2 hours after adding the reagent.

[2] = system: FVB/NHan mice inoculated with kainate (KA); test: Antiepileptic effect against kainate in mice (Racine scale); format: in vivo
Method: (§1) All the animals included for the experimental process were 12-week old males of the FVB/NHan strain. The experiments were conducted strictly following the Guidance on the Operation of Animals (Scientific Procedures, Act. 1986). The animals had their respective quarantine period and were treated with maximum precaution to minimize possible contaminations for inoculations and handling.
The animals were intraperitoneally inoculated with 25 mg/kg of kainate (KA) dissolved in PBS. Thirteen animals were pre-treated 24 and 0.5 hours before inoculation with KA by means of intraperitoneal injection with PBS (PBS+KA administration regimen) and 6 were pre-treated 24 and 0.5 hours before inoculation with KA by means of intraperitoneal injection with NST0037 at a dose of 50 mg/kg (NST0037+KA administration regimen). After the inoculation, the animals were individually housed in trays to monitor them. The maximum epilepsy level of the animals was recorded during the observation according to the Racine scale every ten minutes and for at least 120 minutes post-inoculation (m.p.i.).

[3] = system: CD1 mice inoculated with MPTP (acute); test: Acute MPTP model of Parkinson's disease in mice; format: in vivo
Method: as §1, with “the CD1” for “the FVB/NHan”, “contaminations during” for “contaminations for”
Forty animals were used in this assay and the treatments were conducted with a volume of 100 μl, according to the following regimens: • i) PBS+PBS+PBS regimen: 10 animals were initially treated with PBS with a daily dose for 2 days by subcutaneous (s.c.) route, on the second day the animals were inoculated with 4 doses of PBS, at intervals of 2 hours by intraperitoneal (i.p.) route. For the next 7 days they were administered a daily dose of PBS by s.c. route. • ii) PBS+MPTP+PBS regimen: 10 animals were initially treated with a daily dose for 2 days of PBS by s.c. route, on the second day the animals were inoculated with 4 doses of MPTP at 20 mg/Kg, at intervals of 2 hours by i.p. route. For the next 7 days they were administered a daily dose of PBS by s.c. route. • iii) NST0037+MPTP+NST0037 regimen: 10 animals were initially treated with a daily dose for 2 days of NST0037 at 50 mg/kg by s.c. route, on the second day the animals were inoculated with 4 doses of MPTP at 20 mg/Kg, at intervals of 2 hours by i.p. route. For the next 7 days they were administered a daily dose of NST0037 at 50 mg/kg by s.c. route.
Before starting the treatments and once the treatment time of 7 days ended, the animals were subjected to a locomotor resistance test referred to as the Rotarod test for 2 minutes, recording the time the animals resisted walking over a cylinder which increased its speed from 4 to 40 r.p.m.
Before starting the treatments and once the treatment time of 7 days ended, the animals were subjected to a strength test in the so-called Grip-strength test, recording the strength of gripping a bar in grams exerted by the animals with the front paws in triplicate.
(§2) Once the treatment time of 7 days ended, the animals were sacrificed and the brains were dissected. The brain samples were processed and included in paraffin. For the analysis of neurodegeneration in the substantia nigra and the striatum, fluorescent Fluoro Jade B (FJB) staining was performed in 5 μm thick sagittal sections.
as §2, with “the presence of dopaminergic neurons” for “neurodegeneration”, “the immunohistochemistry against the tyrosine-hydroxylase (TH) protein” for “fluorescent Fluoro Jade B (FJB) staining”

[4] = system: Candida albicans CECT 1002; test: Fungicidal activity bioassay (growth inhibition halos); format: cell-based; settings: β-hydroxy acid form
Method: The fungicidal activity of NST0037 was analyzed by means of bioassay against Candida albicans. […] The assayed concentrations were the following: 2, 1.5, 1, 0.5, 0.25, 0.125, 0.06, 0.025 and 0.01 mM. Plates of MA medium (containing per liter: 20 g malt extract, 20 g glucose, 1 g mycopeptone and 10 g agar) previously inoculated with a culture of Candida albicans CECT (Spanish Type-Culture Collection) 1002 were prepared. With aid of a die (6 mm in diameter) various wells were prepared in which 40 μL of the previous solutions were deposited. The study was performed in triplicate and triplicates for each compound and concentration were included in each plate. The plates were kept at 4° C. for 1 hour and were subsequently incubated at 28° C. overnight. The presence of antifungal activity was determined by means of the formation of C. albicans growth inhibition halos.

[5] = NST0037+MPTP+NST0037, 50 mg/kg s.c., 7 days
[6] = NST0037+MPTP+NST0037 vs PBS+MPTP+PBS, 7 days

## CCC(CC)C(=O)O[C@H]1C[C@@H](C)C=C2C=C[C@H](C)[C@H](CC[C@@H]3C[C@@H](O)CC(=O)O3)[C@H]21 [NST0037, (1S,2S,6R,8S,8aR)-1,2,6,7,8,8a-hexahydro-3,7-dimethyl-8-[2-[(2R,4R)-tetrahydro-4-hydroxy-6-oxo-2H-pyran-2-yl]ethyl]-1-naphthalenyl-2-ethyl-butyrate]
[1]
  protection against death caused by Tm: 55%
[2]; NST0037+KA regimen
  epileptogenic symptoms from 100 m.p.i.: caused the disappearance of the epileptogenic symptoms
[2]; NST0037+KA, 120 minutes observation
  epilepsy level on the Racine scale: < 3
[3]; [5]
  motor resistance (Rotarod test): prevents the motor deterioration of the animals
  strength (Grip-strength test): prevents the loss of strength induced by MPTP
[3]; NST0037+MPTP+NST0037, 50 mg/kg s.c., MPTP 4 x 20 mg/Kg i.p.
  survival after acute administration of MPTP: promotes the survival of the animals
[3]; [6]
  dopaminergic neurons (tyrosine-hydroxylase) in substantia nigra and striatum: larger number of TH-positive cells in the substantia nigra as well as a higher labeling intensity in the striatum
  neurodegeneration (Fluoro Jade B) in substantia nigra and striatum: number of cells in degeneration and positive for FJB significantly lower
[4]; 0.06 and 0.025 mM
  inhibition halos at lower concentrations: the only one capable of causing inhibition halos
[4]; 2 to 0.01 mM
  antifungal activity (inhibition halos): higher antifungal activity than the statins included in the assay
